According to US10294202B2, “Pyrrolidinones as herbicides” (FMC Corporation, priority 2013, dated 2019):

Assays:
[1] = tested on: barnyardgrass; assay: Test C pre-/postemergence herbicide test; format: in vivo, Echinochloa crus-galli; conditions: Preemergence
Method in brief: (§1)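 Greenhouse plants scored visually against untreated controls 13–15 days after treatment, 0 = no effect, 100 = complete control. Test chemicals in a non-phytotoxic solvent with surfactant were applied either to soil (loam/sand) at planting or to foliage of 1- to 4-leaf plants, 2–18 cm tall.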

[2] = tested on: rice; assay: Test C flooded paddy test; format: in vivo, Oryza sativa; conditions: Flood
Method in brief: (§2)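 2-leaf stage; flood 3 cm over soil; compound into paddy water; depth held; greenhouse 13–15 d; visual % control vs untreated (0 = none, 100 = complete); "-" = not tested.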

[3] = tested on: morningglory; assay: Test A pre-/postemergence herbicide test; format: in vivo, Ipomoea spp.
Method in brief: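 Visual 0–100 ratings (100 = complete control) made about 10 days after treatment, greenhouse-held plants compared with untreated controls. Treatments: postemergence sprays on one- to two-leaf plants (2–10 cm tall) and preemergence directed soil sprays after planting in loam–sand, chemicals formulated in non-phytotoxic solvent containing surfactant.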

[4] = tested on: sedge, umbrella; assay: Test C flooded paddy test; format: in vivo, Cyperus difformis; conditions: Flood
Method in brief: as §2

[5] = tested on: lambsquarters; assay: Test C pre-/postemergence herbicide test; format: in vivo, Chenopodium album; conditions: Preemergence
Method in brief: as §1

[6] = tested on: barnyardgrass; assay: Test C flooded paddy test; format: in vivo, Echinochloa crus-galli; conditions: Flood
Method in brief: as §2

[7] = 31 g ai/ha, scale 0 to 100, 0 is no effect and 100 is complete control
[8] = 125 g ai/ha, scale 0 to 100 (0 no effect, 100 complete control)
[9] = 125 g ai/ha, scale of 0 to 100 where 0 is no effect and 100 is complete control, 13 to 15 days
[10] = Postemergence, 125 g ai/ha, 0 to 100 scale, 0 is no effect, 100 is complete control
[11] = preemergence, 500 g ai/ha, 0 to 100 scale, 0 is no effect and 100 is complete control
[12] = 62 g ai/ha, scale 0 to 100 (0 no effect, 100 complete control)
[13] = 250 g ai/ha, scale of 0 to 100 where 0 is no effect and 100 is complete control, 13 to 15 days

SMILES	Barnyardgrass plant response rating [1, 7]	Plant response rating, Barnyardgrass [1, 8]	Plant response rating, Rice ([2]; 500 g ai/ha, scale 0 to 100)	Plant response rating, Rice ([2]; 1000 g ai/ha, scale 0 to 100)	Plant response rating, Morningglory [3, 10]	Plant response rating, Morningglory [3, 11]	Plant response rating, Sedge, Umbrella ([4]; 500 g ai/ha, scale 0 to 100)	Plant response rating, Sedge, Umbrella ([4]; 1000 g ai/ha, scale 0 to 100)	Lambsquarters plant response rating [5, 7]	Lambsquarters plant response rating [5, 12]	Plant response rating, Lambsquarters [5, 8]	Plant response rating, Barnyardgrass ([6]; 500 g ai/ha, scale 0 to 100)	Plant response rating, Barnyardgrass ([6]; 1000 g ai/ha, scale 0 to 100)	also measured
O=C1NCC(c2cccc(C(F)(F)F)c2)C1C(=O)Nc1ccccc1Cl (racemic) [Compound 189]	85	90	0	0	0	0	0	0	0	0	5	50	75	Plant response rating, Barnyardgrass ([1]; 62 g ai/ha, scale 0 to 100): 90; Plant response rating, Barnyardgrass ([1]; 16 g ai/ha, scale 0 to 100): 45; Plant response rating, Rice [2, 9]: 0; Plant response rating, Rice ([2]; 250 g ai/ha, scale 0 to 100): 0; Plant response rating, Morningglory ([3]; 125 g ai/ha, visual rating, 0 to 100 scale, 0 no effect, 100 complete control, approximately 10 days, preemergence): 0; Morningglory plant response rating (0 to 100 scale, 0 is no effect, 100 is complete control) ([3]; Postemergence, 500 g ai/ha): 0; Plant response rating, Sedge, Umbrella [4, 9]: 0; Plant response rating, Sedge, Umbrella ([4]; 250 g ai/ha, scale 0 to 100): 0; Plant response rating, Lambsquarters ([5]; 16 g ai/ha, scale 0 to 100): 0; Plant response rating, Barnyardgrass [6, 9]: 10; Plant response rating, Barnyardgrass ([6]; 250 g ai/ha, scale 0 to 100): 30
O=C1NCC(c2ccc(C(F)(F)F)c(F)c2)C1C(=O)Nc1cccc(F)c1F (racemic) [Compound 247]	15	90	0	0	0	0	0	0	0	90	70	35	70	Barnyardgrass plant response rating [1, 12]: 85; Plant response rating (scale of 0 to 100; 0 is no effect, 100 is complete control), Barnyardgrass ([1]; 250 g ai/ha): 90; Plant response rating, Rice [2, 13]: 0; Plant response rating, Rice ([2]; 2000 g ai/ha, scale 0 to 100): 15; Plant response rating, Morningglory ([3]; Postemergence, 500 g ai/ha, 0 to 100 scale (0 no effect, 100 complete control)): 0; Plant response rating, Morningglory ([3]; Preemergence, 125 g ai/ha, 0 to 100 scale where 0 is no effect and 100 is complete control): 0; Plant response rating, Sedge, Umbrella [4, 13]: 0; Plant response rating, Sedge, Umbrella ([4]; 2000 g ai/ha, scale 0 to 100): 0; Plant response rating (scale of 0 to 100), Lambsquarters ([5]; 250 g ai/ha): 80; Plant response rating, Barnyardgrass [6, 13]: 25; Plant response rating, Barnyardgrass ([6]; 2000 g ai/ha, scale 0 to 100): 80
